Results: publication PMC12067741, “Inhibition of SOD1 trimerization is a novel drug target for ALS disease” (Translational Neurodegeneration, 2025)
Entries after “also recorded” stand apart in the source; their conditions may differ.

Columns and labels:
[1] = system: MT-SOD1; experiment: SOD1 oligomerization assay in cells transfected with MT-SOD1 (glutaraldehyde fixation, SDS-PAGE); assay type: cell-based
Description: For SDS-PAGE, proteins were extracted from cells with the RIPA buffer (50 mmol/L Tris–Cl, pH 7.5, 150 mmol/L NaCl, 1% NP-40, 0.1% SDS and […]). To detect the oligomer status, the cells were harvested with the TNNI buffer (50 mmol/L Tris–Cl, pH 7.5, 150 mmol/L NaCl, 0.3% NP-40, 100 mmol/L iodoacetamide, protease inhibitor cocktails) and reacted with 0.04% glutaraldehyde (Glu) for 30 min, and then SDS-PAGE was performed using the pan-SOD1 antibody. Samples were separated via SDS-PAGE and transferred to PVDF membrane. Blotted membranes were blocked by 3% skim milk containing TBST buffer for 1 h and incubated with specific antibodies. The following primary antibodies were used: pan-SOD1 (GTX100554) from Genetex (Irvine, CA); misfolded SOD1-specific antibody (B8H10) from MediMabs (Montreal, Canada); Actin (sc-1616), GST (sc-138), and GFP (Green fluorescent protein; sc-8036) antibodies from Santa Cruz Biotechnology (Santa Cruz, CA); TDP-43 antibody (10782–2-AP) from Proteintech (Rosemont, IL); anti-FLAG (Sigma; F3165) from Sigma-Aldrich (St. Louis, MO). HRP-conjugated goat anti-mouse, goat anti-rabbit and mouse anti-goat antibodies (Pierce, Thermo Fisher Scientific, Inc., Rockford, IL) were used as secondary antibodies. The blots were detected using an ECL assay (Advansta) and images were acquired using the […] ImageQuant 800 (Cytiva) system and an X-Ray film detector. […]

[2] = Plasma stability; assay type: in vitro ADME; details: beagle dog plasma, after 120 min of incubation
[3] = target: T1, GST-SOD1-G93A recombinant protein (MT-SOD1) (Homo sapiens, UniProt P00441, G94A); experiment: GST pull-down with LC-MS/MS of protein-bound compound; assay type: binding; details: GST pull-down and LC-MS/MS
T1 construct: made in house; host or cells: Escherichia coli BL21 (DE3), pCold GST vector
T1 sequence (P00441 whole entry G94A): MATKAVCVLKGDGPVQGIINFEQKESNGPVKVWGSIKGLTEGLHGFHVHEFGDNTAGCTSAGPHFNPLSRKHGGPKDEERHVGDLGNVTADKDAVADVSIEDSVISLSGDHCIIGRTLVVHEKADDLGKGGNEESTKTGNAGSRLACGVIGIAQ
Description: To prepare a calibration curve within the PRG-A-04 concentration range of 1–50 ppb, standard solutions (1, 5, 10, 25, 50 ppb) were prepared by dilution with 90% methanol. GST, GST-SOD1 WT, and GST–SOD1-G93A recombinant proteins bound to GST agarose were incubated overnight with PRG-A-04 (20 μmol/L) in cold chamber (4 °C). The samples were washed three times to remove unbound PRG-A-04 from the proteins. The washed sample pellets were incubated with 90% methanol to elute the protein-bound PRG-A-04. The elutes from each sample were analyzed by LC/MS as follows. Both standard samples and control samples underwent the same sample processing procedures as the test samples. The LC–MS/MS analysis was performed on a Waters UPLC Acquity I-class plus system coupled to a Qtrap 6500 plus system (Sciex, Framingham, MA). An Aeris 3.6 μm 100 × 2.1 mm column (Phenomenex, Torrance, CA) was used for separation. The mobile phase consisted of solvent A (water containing 0.1% formic acid) and solvent B (acetonitrile containing 0.1% formic acid). Gradient elution was achieved as follows: […], 90% A, 10% B; 0.37–6.0 min, 55% A, 45% B; 6.0–7.0 min, 5% A, 95% B; 7.0–10.0 min, 90% A, 10% B. The flow rate was 0.4 mL/min. The column temperature was 40 °C, and the sample injection volume was 10 µL. After each injection, the autosampler syringe was washed with methanol. […]

[4] = system: SOD1^G93A−Tg mice; experiment: Efficacy of feeding combined with i.p. injection in SOD1G93A-Tg ALS mice; assay type: in vivo, mouse; details: daily feeding from 7 weeks plus i.p. twice weekly from 11 weeks; vehicle about 80%
Description: Age-matched WT mice were tested as positive control. […] Mouse movement was recorded.
Meier survival curve of SOD1G93A-Tg ALS mouse model.
Lifespan of PRG-A-01 data was collected from
SOD1G93A-Tg ALS mouse model.

Q: What does the source list for `COc1cc(C=CCOC2Cc3cc4ccc(=O)oc4cc3OC2(C)C)ccc1[N+](=O)[O-]` (centres unmarked) [PRG-A-04]?
A: effect on SOD1 dimer formation ([1]; cells transfected with MT-SOD1): did not affect dimer formation; effect on MT-SOD1 aggregation / oligomerization ([1]; cells transfected with MT-SOD1 vectors): suppressed the MT-SOD1 aggregation; also recorded: blocked aggregation of various SOD1 mutants; also recorded: suppressed SOD1 oligomerization by MT-SOD1 in a dose-dependent manner; stability in plasma [2]: stable; binding affinity to MT-SOD1 versus WT-SOD1 [3]: stronger binding affinity to MT-SOD1 than to WT-SOD1 protein; reduction of motility (rotarod latency) at 18 weeks [4]: 50%
